Results: PubChem BioAssay AID2060894 (Molecular Pharmacology Branch, DTP, NCI, 2025)

System: K12877-001-R-J1-PDC complex spheroid viability
Assay: Anticancer human tumor K12877-001-R-J1-PDC patient-derived lung adenocarcinoma cell line growth inhibition [RAS]
Conditions: for IC50: curve of first compound; for viability, T/C: stronger effect = lower value
Summary of the method: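 Multi-cell-type spheroids: tumor cells plus HUVEC endothelial cells and mesenchymal stem cells. RAS-pathway inhibitors were combined with targeted agents, each dosed in half-log steps down from clinical Cmax, or from 10 microM when Cmax was unknown.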

[1] = second compound 0.000949 µM, first compound 0.0316 µM
[2] = second compound 0.000949 µM, first compound 0.1 µM
[3] = second compound 0.000949 µM, first compound 0.316 µM
[4] = second compound 0.000949 µM, first compound 1 µM
[5] = second compound 0.003 µM, first compound 0.0316 µM
[6] = second compound 0.003 µM, first compound 0.1 µM
[7] = second compound 0.003 µM, first compound 0.316 µM
[8] = second compound 0.003 µM, first compound 1 µM
[9] = second compound 0.00949 µM, first compound 0.0316 µM
[10] = second compound 0.00949 µM, first compound 0.1 µM
[11] = second compound 0.00949 µM, first compound 0.316 µM
[12] = second compound 0.00949 µM, first compound 1 µM
[13] = second compound 0.03 µM, first compound 0.0316 µM
[14] = second compound 0.03 µM, first compound 0.1 µM
[15] = second compound 0.03 µM, first compound 0.316 µM
[16] = second compound 0.03 µM, first compound 1 µM
[17] = second compound 0.0949 µM, first compound 0.0316 µM
[18] = second compound 0.0949 µM, first compound 0.1 µM
[19] = second compound 0.0949 µM, first compound 0.316 µM
[20] = second compound 0.0949 µM, first compound 1 µM
[21] = second compound 0.3 µM, first compound 0.0316 µM
[22] = second compound 0.3 µM, first compound 0.1 µM
[23] = second compound 0.3 µM, first compound 0.316 µM
[24] = second compound 0.3 µM, first compound 1 µM
[25] = second compound 0.000949 µM, first compound 3.16 µM
[26] = second compound 0.000949 µM, first compound 10 µM
[27] = second compound 0.003 µM, first compound 3.16 µM
[28] = second compound 0.003 µM, first compound 10 µM
[29] = second compound 0.00949 µM, first compound 3.16 µM
[30] = second compound 0.00949 µM, first compound 10 µM
[31] = second compound 0.03 µM, first compound 3.16 µM
[32] = second compound 0.03 µM, first compound 10 µM
[33] = second compound 0.0949 µM, first compound 3.16 µM
[34] = second compound 0.0949 µM, first compound 10 µM
[35] = second compound 0.3 µM, first compound 3.16 µM
[36] = second compound 0.3 µM, first compound 10 µM
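Further: spheroids exposed to agents for one week before readout.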
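Wherever viability, T/C is given: tumour cells co-cultured with HUVEC and mesenchymal stem cells in spheroids.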

In the case of `CCN1CCN(Cc2ccc(Nc3ncc(F)c(-c4cc(F)c5nc(C)n(C(C)C)c5c4)n3)nc2)CC1` + CCn1c(-c2cc(N3CCN(C)CC3)cnc2C(C)OC)c2c3cc(ccc31)-c1csc(n1)CC(NC(=O)C1CC1C)C(=O)N1CCCC(N1)C(=O)OCC(C)(C)C2, the IC50 (second compound 0.000949 µM) is reported as greater than 1000 nM, the IC50 (second compound 0.003 µM) is reported as 803 nM and the IC50 (second compound 0.00949 µM) is reported as 578 nM. It also gave an IC50 (second compound 0.03 µM) of 469 nM, an IC50 (second compound 0.0949 µM) of 516 nM and an IC50 (second compound 0.3 µM) of 376 nM. It also gave a viability, T/C (second compound 0.000949 µM, first compound 0.00316 µM) of 79.9%, a viability, T/C (second compound 0.000949 µM, first compound 0.01 µM) of 84.1% and a viability, T/C [1] of 85%. The viability, T/C [2] was 92.5%, the viability, T/C [3] was 86.8% and the viability, T/C [4] was 73.2%. The viability, T/C (second compound 0.003 µM, first compound 0.00316 µM) was 73.7%, the viability, T/C (second compound 0.003 µM, first compound 0.01 µM) was 72.1% and the viability, T/C [5] was 72.7%. It also gave a viability, T/C [6] of 69.3%, a viability, T/C [7] of 70.2% and a viability, T/C [8] of 45.3%. For the same compound, the viability, T/C (second compound 0.00949 µM, first compound 0.00316 µM) was 61.7%, the viability, T/C (second compound 0.00949 µM, first compound 0.01 µM) was 61.3% and the viability, T/C [9] was 68.9%. It also gave a viability, T/C [10] of 70.8%, a viability, T/C [11] of 72% and a viability, T/C [12] of 34.6%. It also gave a viability, T/C (second compound 0.03 µM, first compound 0.00316 µM) of 81.7%, a viability, T/C (second compound 0.03 µM, first compound 0.01 µM) of 86.8% and a viability, T/C [13] of 74.3%. The viability, T/C [14] was 89.8%, the viability, T/C [15] was 61.5% and the viability, T/C [16] was 28.1%. It also gave a viability, T/C (second compound 0.0949 µM, first compound 0.00316 µM) of 106%, a viability, T/C (second compound 0.0949 µM, first compound 0.01 µM) of 97.9% and a viability, T/C [17] of 99.6%. It also gave a viability, T/C [18] of 86.5%, a viability, T/C [19] of 63% and a viability, T/C [20] of 32.3%. The viability, T/C (second compound 0.3 µM, first compound 0.00316 µM) was 97%, the viability, T/C (second compound 0.3 µM, first compound 0.01 µM) was 86.2% and the viability, T/C [21] was 86.5%. It also gave a viability, T/C [22] of 76.2%, a viability, T/C [23] of 53.1% and a viability, T/C [24] of 26.1%.

Compound `Cc1nc(N2CCC3(CC2)COC(C)C3N)c(CO)nc1Sc1ccnc(N)c1Cl` (stereo unspecified) + CCn1c(-c2cc(N3CCN(C)CC3)cnc2C(C)OC)c2c3cc(ccc31)-c1csc(n1)CC(NC(=O)C1CC1C)C(=O)N1CCCC(N1)C(=O)OCC(C)(C)C2 has an IC50 (second compound 0.000949 µM) greater than 10000 nM, an IC50 (second compound 0.003 µM) greater than 10000 nM and an IC50 (second compound 0.00949 µM) greater than 10000 nM. The IC50 (second compound 0.03 µM) was greater than 10000 nM, the IC50 (second compound 0.0949 µM) was greater than 10000 nM and the IC50 (second compound 0.3 µM) was 8660 nM. For the same compound, the viability, T/C [1] was 77.8%, the viability, T/C [2] was 69.4% and the viability, T/C [3] was 71.7%. It also gave a viability, T/C [4] of 59%, a viability, T/C [25] of 66.7% and a viability, T/C [26] of 58.7%. For the same compound, the viability, T/C [5] was 63.6%, the viability, T/C [6] was 57.7% and the viability, T/C [7] was 62.1%. For the same compound, the viability, T/C [8] was 63.4%, the viability, T/C [27] was 69.3% and the viability, T/C [28] was 71.3%. It also gave a viability, T/C [9] of 72.2%, a viability, T/C [10] of 70.8% and a viability, T/C [11] of 79.8%. The viability, T/C [12] was 73.4%, the viability, T/C [29] was 71.8% and the viability, T/C [30] was 56.4%. The viability, T/C [13] was 97.1%, the viability, T/C [14] was 93.7% and the viability, T/C [15] was 93.9%. The viability, T/C [16] was 81%, the viability, T/C [31] was 75.9% and the viability, T/C [32] was 59.5%. The viability, T/C [17] was 98.8%, the viability, T/C [18] was 94% and the viability, T/C [19] was 94.5%. It also gave a viability, T/C [20] of 76.2%, a viability, T/C [33] of 67.2% and a viability, T/C [34] of 50.2%. It also gave a viability, T/C [21] of 97.5%, a viability, T/C [22] of 86.1% and a viability, T/C [23] of 81.5%. The viability, T/C [24] was 71.2%, the viability, T/C [35] was 65.6% and the viability, T/C [36] was 45.6%.

Compound `NC1c2ccccc2OC12CCN(c1cnc3c(N4CCCc5ncccc54)n[nH]c3n1)CC2` (stereo unspecified) + CCn1c(-c2cc(N3CCN(C)CC3)cnc2C(C)OC)c2c3cc(ccc31)-c1csc(n1)CC(NC(=O)C1CC1C)C(=O)N1CCCC(N1)C(=O)OCC(C)(C)C2 has an IC50 (second compound 0.000949 µM) greater than 10000 nM, an IC50 (second compound 0.003 µM) of 7630 nM and an IC50 (second compound 0.00949 µM) of 4860 nM. For the same compound, the IC50 (second compound 0.03 µM) was 3490 nM, the IC50 (second compound 0.0949 µM) was 1330 nM and the IC50 (second compound 0.3 µM) was 937 nM. For the same compound, the viability, T/C [1] was 64.9%, the viability, T/C [2] was 57.4% and the viability, T/C [3] was 58%. For the same compound, the viability, T/C [4] was 83.2%, the viability, T/C [25] was 61.3% and the viability, T/C [26] was 46.9%. For the same compound, the viability, T/C [5] was 55.2%, the viability, T/C [6] was 72.1% and the viability, T/C [7] was 84.6%. For the same compound, the viability, T/C [8] was 82.2%, the viability, T/C [27] was 62.9% and the viability, T/C [28] was 46%. For the same compound, the viability, T/C [9] was 84.1%, the viability, T/C [10] was 80% and the viability, T/C [11] was 74.1%. The viability, T/C [12] was 64.9%, the viability, T/C [29] was 59.5% and the viability, T/C [30] was 38.6%. For the same compound, the viability, T/C [13] was 102%, the viability, T/C [14] was 97.1% and the viability, T/C [15] was 72.4%. It also gave a viability, T/C [16] of 64%, a viability, T/C [31] of 56.9% and a viability, T/C [32] of 34.2%. The viability, T/C [17] was 91.9%, the viability, T/C [18] was 77.6% and the viability, T/C [19] was 64.9%. For the same compound, the viability, T/C [20] was 52.7%, the viability, T/C [33] was 41.9% and the viability, T/C [34] was 33%. For the same compound, the viability, T/C [21] was 77.4%, the viability, T/C [22] was 67.7% and the viability, T/C [23] was 60%. The viability, T/C [24] was 49.3%, the viability, T/C [35] was 39.1% and the viability, T/C [36] was 26%.
